Results reported in patent US9512107B2, “Therapeutically active compositions and their methods of use” (Agios Pharmaceuticals, Inc., priority 2012, dated 2016).

Columns and labels:
[1] = biological target: T1, IDH2 R140Q (Homo sapiens, UniProt P48735, R140Q); experiment: IDH2 R140Q enzymatic assay (cofactor depletion, similar format); type: biochemical; details: read-out: Enz R140Q
T1 sequence (P48735 40-452 R140Q): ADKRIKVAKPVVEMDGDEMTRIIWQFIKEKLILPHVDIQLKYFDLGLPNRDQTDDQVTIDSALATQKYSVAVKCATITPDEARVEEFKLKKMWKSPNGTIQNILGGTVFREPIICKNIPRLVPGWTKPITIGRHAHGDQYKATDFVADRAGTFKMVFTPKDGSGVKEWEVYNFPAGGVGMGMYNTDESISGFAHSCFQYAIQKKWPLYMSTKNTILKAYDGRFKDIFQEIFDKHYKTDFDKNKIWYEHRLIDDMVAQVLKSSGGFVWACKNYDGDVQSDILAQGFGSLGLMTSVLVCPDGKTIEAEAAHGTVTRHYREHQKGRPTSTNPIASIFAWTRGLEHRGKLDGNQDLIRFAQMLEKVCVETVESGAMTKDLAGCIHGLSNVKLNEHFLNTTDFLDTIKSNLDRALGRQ
Procedure: [The source words this procedure for another variant and says it was used here with some conditions changed.] Compounds are assayed for IDH2 R172K inhibitory activity through a cofactor depletion assay. […] The reaction is terminated by the addition of a second enzyme, diaphorase, and a corresponding substrate, resazurin. Diaphorase reduces resazurin to the highly fluorescent resorufin with the concomitant oxidation of NADPH to NADP, both halting the IDH2 reaction by depleting the available cofactor pool and facilitating quantitation of the amount of cofactor remaining after a specific time period through quantitative production of an easily detected fluorophore.
The test compound is then incubated for one hour at room temperature with the enzyme; before starting the IDH2 reaction with the addition of 10 μl of substrate mix containing 50 μM NADPH and 6.3 mM α-KG in the buffer described above. After a further one hour of incubation at room temperature, the reaction is halted and the remaining NADPH measured through conversion of resazurin to resorufin by the addition of 25 μl Stop Mix (36 μg/ml diaphorase enzyme and 60 μM resazurin; in buffer).

[2] = tested on: U87MG pLVX-IDH2 R140Q-neo cells; experiment: U87MG pLVX-IDH2 R140Q-neo cell based assay, 2-HG in media by LC-MS at 48 hours; details: for IC50: Homo sapiens, U-87 MG
Procedure: U87MG pLVX-IDH2 R140Q-neo cells are grown in T125 flasks in DMEM containing 10% FBS, 1× penicillin/streptomycin and 500 μg/mL G418. They are harvested by trypsin and seeded into 96 well white bottom plates at a density of 5000 cell/well in 100 μl/well in DMEM with 10% FBS. No cells are plated in columns 1 and 12. Cells are incubated overnight at 37° C. in 5% CO2. The next day compounds are made up at 2× concentration and 100 ul are added to each cell well. The final concentration of DMSO is 0.2% and the DMSO control wells are plated in row G. The plates are then placed in the incubator for 48 hours. At 48 hours, 100 ul of media is removed from each well and analyzed by LC-MS for 2-HG concentrations. The cell plate is placed back in the incubator for another 24 hours. At 72 hours post compound addition, 10 mL/plate of Promega Cell Titer Glo reagent is thawed and mixed. The cell plate is removed from the incubator and allowed to equilibrate to room temperature. Then 100 ul of reagent is added to each well of media. The cell plate is then placed on an orbital shaker for 10 minutes and then allowed to sit at room temperature for 20 minutes. The plate is then read for luminescence with an integration time of 500 ms to determine compound effects on growth inhibition.

| IC50 [1] [nM] | IC50 [2] [nM] | Structure (SMILES) | Cell R140Q [2] |
| --- | --- | --- | --- |
| 100 to 1000 | 100 to 1000 | Cc1ncc(Nc2nc(NC(C)C)nc(-c3ccccc3)n2)cn1 [Compound 343, N^2-isopropyl-N^4-(2-methylpyrimidin-5-yl)-6-phenyl-1,3,5-triazine-2,4-diamine] |  |
| < 100 | 100 to 1000 | COC(=O)c1cc(Nc2nc(NC(C)C)nc(-c3ccccc3)n2)ccn1 [Compound 346] |  |
| < 100 | < 100 | O[C@H]1CCC[C@H]1Nc1nc(Nc2ccccc2)nc(-c2ccccc2)n1 [Compound 352, (1S,2R)-2-(4-phenyl-6-(phenylamino)-1,3,5-triazin-2-ylamino)cyclopentanol] |  |
| 100 to 1000 | < 100 | CC(C)Nc1nc(Nc2cncnc2)nc(-c2cccc(Cl)n2)n1 [Compound 353, 6-(6-chloropyridin-2-yl)-N^2-isopropyl-N^4-(pyrimidin-5-yl)-1,3,5-triazine-2,4-diamine] |  |
| 100 to 1000 | < 100 | CC(C)Nc1nc(Nc2ccnc(Cl)c2)nc(-c2cccc(Cl)n2)n1 [Compound 354, 6-(6-chloropyridin-2-yl)-N^2-(2-chloropyridin-4-yl)-N^4-isopropyl-1,3,5-triazine-2,4-diamine] |  |
| 100 to 1000 | < 100 | CC(C)Nc1nc(Nc2ccnc(C#N)c2)nc(-c2cccc(Cl)n2)n1 [Compound 355, 4-(4-(6-chloropyridin-2-yl)-6-(isopropylamino)-1,3,5-triazin-2-ylamino)picolinonitrile] |  |
| 100 to 1000 | < 100 | FC(F)(F)c1cc(Nc2nc(NC3COC3)nc(-c3cccc(Cl)n3)n2)ccn1 [Compound 356, 6-(6-Chloro-pyridin-2-yl)-N-oxetan-3-yl-N′-(2-trifluoromethyl-pyridin-4-yl)-[1,3,5]triazine-2,4-diamine] |  |
| 100 to 1000 | 100 to 1000 | Cc1cccc(-c2nc(Nc3cccc(S(C)(=O)=O)c3)nc(NC(C)C)n2)n1 [Compound 359, N^2-isopropyl-6-(6-methylpyridin-2-yl)-N^4-(3-(methylsulfonyl)phenyl)-1,3,5-triazine-2,4-diamine] |  |
| 100 to 1000 | 100 to 1000 | C#Cc1cccc(-c2nc(Nc3cccc(S(C)(=O)=O)c3)nc(NC(C)C)n2)n1 [Compound 360, 6-(6-ethynylpyridine-2-yl)-N^2-isopropyl-N^4-(3-(methylsulfonyl)phenyl)-1,3,5-triazine-2,4-diamine] |  |
| 100 to 1000 | 100 to 1000 | COc1cccc(-c2nc(Nc3cccc(S(C)(=O)=O)c3)nc(NC(C)C)n2)n1 [Compound 361, N^2-isopropyl-6-(6-methoxypyridin-2-yl)-N^4-(3-(methylsulfonyl)phenyl)-1,3,5-triazine-2,4-diamine] |  |
| 100 to 1000 | 100 to 1000 | O=C1C=C(Nc2nc(Nc3ccccc3)nc(-c3ccccc3)n2)CCC1 [Compound 362, 3-(4-phenyl-6-(phenylamino)-1,3,5-triazin-2-ylamino)cyclohex-2-enone] |  |
| 100 to 1000 | < 100 | CC(C)(C)CNc1nc(Nc2ccc(F)nc2)nc(-c2ccccn2)n1 [Compound 363, N^2-(6-fluoropyridin-3-yl)-N^4-neopentyl-6-(pyridin-2-yl)-1,3,5-triazine-2,4-diamine] |  |
| 1000 to 10000 | 100 to 1000 | CNc1cccc(-c2nc(Nc3cccc(S(C)(=O)=O)c3)nc(NC(C)C)n2)n1 [Compound 364, N^2-isopropyl-6-(6-(methylamino)pyridin-2-yl)-N^4-(3-(methylsulfonyl)phenyl)-1,3,5-triazine-2,4-diamine] |  |
| 100 to 1000 | < 100 | CC(C)Nc1nc(Nc2cccc(S(C)(=O)=O)c2)nc(-c2cccc(C(F)F)n2)n1 [Compound 366, 6-(6-(difluoromethyl)pyridin-2-yl)-N^2-isopropyl-N^4-(3-(methylsulfonyl)phenyl)-1,3,5-triazine-2,4-diamine] |  |

Further lines, the molecule ahead of its results:

| Structure (SMILES) | IC50 [1] [nM] | IC50 [2] [nM] | Cell R140Q [2] |
| --- | --- | --- | --- |
| CC(C)(O)CNc1nc(Nc2ccnc(C(F)(F)F)c2)nc(-c2ccccc2F)n1 [Compound 319, 1-(4-(2-fluorophenyl)-6-(2-(trifluoromethyl)pyridin-4-ylamino)-1,3,5-triazin-2-ylamino)-2-methylpropan-2-ol] | 100 to 1000 | < 100 |  |
| CC(C)CNc1nc(Nc2cncc(F)c2)nc(-c2ccccc2F)n1 [Compound 320, 6-(2-fluorophenyl)-N^2-(5-fluoropyridin-3-yl)-N^4-isobutyl-1,3,5-triazine-2,4-diamine] | < 100 | < 100 |  |
| CC(C)Nc1nc(Nc2cncc(C#N)c2)nc(-c2ccccc2F)n1 [Compound 321, 5-(4-(2-fluorophenyl)-6-(isopropylamino)-1,3,5-triazin-2-ylamino)nicotinonitrile] | < 100 | < 100 |  |
| Fc1cncc(Nc2nc(NC3CCC3)nc(-c3ccccn3)n2)c1 [Compound 322, N^2-cyclobutyl-N^4-(5-fluoropyridin-3-yl)-6-(pyridin-2-yl)-1,3,5-triazine-2,4-diamine] | 100 to 1000 | < 100 |  |
| Fc1cncc(Nc2nc(NC3CCC3)nc(-c3cccc(Cl)n3)n2)c1 [Compound 323, 6-(6-chloropyridin-2-yl)-N^2-cyclobutyl-N^4-(5-fluoropyridin-3-yl)-1,3,5-triazine-2,4-diamine] | 100 to 1000 | < 100 |  |
| CC(O)C(=O)Nc1nc(Nc2ccccc2)nc(-c2ccccc2)n1 (centres unmarked) [Compound 324, 2-hydroxy-N-(4-phenyl-6-(phenylamino)-1,3,5-triazin-2-yl)propanamide] | 100 to 1000 | 1000 to 10000 |  |
| Fc1ccc(Nc2nc(NC3CCC3)nc(-c3cccc(Cl)n3)n2)cn1 [Compound 325, 6-(6-chloropyridin-2-yl)-N^2-cyclobutyl-N^4-(6-fluoropyridin-3-yl)-1,3,5-triazine-2,4-diamine] | < 100 | < 100 |  |
| CC(C)Nc1nc(Nc2cccc(S(C)(=O)=O)c2)nc(-c2cccc(Cl)n2)n1 [Compound 326, 6-(6-chloropyridin-2-yl)-N^2-isopropyl-N^4-(3-(methylsulfonyl)phenyl)-1,3,5-triazine-2,4-diamine] | 100 to 1000 | < 100 |  |
| CC(C)Nc1nc(Nc2ccncc2)nc(-c2cccc(N)c2)n1 [Compound 327] | 100 to 1000 | 100 to 1000 |  |
| CC(C)Nc1nc(Nc2ccncc2)nc(-c2cccc(O)c2)n1 [Compound 328, 3-[4-Isopropylamino-6-(pyridin-4-ylamino)-[1,3,5]triazin-2-yl]-phenol] | < 100 | < 100 |  |
| CC(C)Nc1nc(Nc2cncc(C(F)(F)F)c2)nc(-c2ccccc2)n1 [Compound 329, N^2-isopropyl-6-phenyl-N^4-(5-(trifluoromethyl)pyridin-3-yl)-1,3,5-triazine-2,4-diamine] | < 100 | < 100 |  |
| Clc1cncc(Nc2nc(NC3CCC3)nc(-c3ccccn3)n2)c1 [Compound 330, N^2-(5-chloropyridin-3-yl)-N^4-cyclobutyl-6-(pyridin-2-yl)-1,3,5-triazine-2,4-diamine] | 100 to 1000 | < 100 |  |
| CNc1cccc(-c2nc(Nc3ccccc3)nc(NC(C)C)n2)n1 [Compound 331, N^2-isopropyl-6-(6-(methylamino)pyridin-2-yl)-N^4-phenyl-1,3,5-triazine-2,4-diamine] | 100 to 1000 | < 100 |  |
| CC(C)Nc1nc(Nc2cn(C)cn2)nc(-c2ccccc2)n1 [Compound 332, N^2-isopropyl-N^4-(1-methyl-1H-imidazol-4-yl)-6-phenyl-1,3,5-triazine-2,4-diamine] | > 10000 |  | No Fit |
